# Test results from the RepoRT retention time repository.
# Where a name gives a salt, the structure may show the parent alone.
# Experiment: HILIC, Merck SeQuant ZIC-HILIC, 25 °C, 0.25 mL/min; A: water + 16 mM ammonium formate; B: acetonitrile + 0.1% formic acid, pH 3; gradient (min/%B) 0/97 2/97 10/70 15/10 17/10 18/97 25/97
# Conditions: stereoisomer not certain
row,SMILES,LC retention time
1,C=C(C)C1CCC2(C(=O)O)CCC3(C)C(CCC4C5(C)CCC(O)C(C)(C)C5CCC43C)C12 (stereo unspecified) [Betulinic acid],1.58 min
2,Cc1ccccc1C(=O)NCC(=O)O [2-Methylhippuric acid (ortho-Methylhippuric acid)],1.97 min
3,Cc1cccnc1 [3-Methylpyridine (3-Picoline)],2.16 min
4,O=C(O)c1cc(O)ccc1O [2-5-DIHYDROXYBENZOATE],2.14 min
5,CC(CCC(=O)O)C1CCC2C3C(=O)CC4CC(O)CCC4(C)C3CC(O)C12C (stereo unspecified) [5b-cholanic acid-3a-12a-DIOL-7-ONE],2.17 min
6,NCC(O)CCC(N)C(=O)O (stereo unspecified) [5-HYDROXYLYSINE],16.2 min
7,Nc1ncnc2c1ncn2C1CC(O)C(COP(=O)(O)OP(=O)(O)O)O1 (stereo unspecified) [2'-DEOXYADENOSINE 5'-DIPHOSPHATE],14.6 min
8,NCC(O)c1ccccc1 (stereo unspecified) [PHENYLETHANOLAMINE],10.9 min
9,Cn1cnc2nc(N)[nH]c(=O)c21 [7-methylguanine],9.77 min
10,Nc1ccnc(=O)[nH]1 [CYTOSINE],12 min
11,NC(CS(=O)O)C(=O)O (stereo unspecified) [3-SULFINOALANINE],14.4 min
12,CC(C)=CC(=O)SCCNC(=O)CCNC(=O)C(O)C(C)(C)COP(=O)(O)OP(=O)(O)OCC1OC(n2cnc3c(N)ncnc32)C(O)C1OP(=O)(O)O (stereo unspecified) [3-METHYLCROTONYL-COA],13.4 min
13,NCCCCN=C(N)N [AGMATINE SULFATE],17.2 min
14,CC(=O)C(C)O (stereo unspecified) [ACETOIN],2.12 min
15,NC(=O)c1ccc[n+](C2OC(COP(=O)(O)OP(=O)(O)OCC3OC(n4cnc5c(N)ncnc54)C(O)C3O)C(O)C2O)c1 (stereo not drawn) [BETA-NICOTINAMIDE ADENINE DINUCLEOTIDE],14.6 min
16,CC(CCC(=O)O)CC(=O)O (stereo unspecified) [3-Methyladipic acid],2.13 min
17,CC(=O)OCC(=O)O [Acetoxyacetic acid],2.23 min
18,CCCCCCCCCCCCCCCCCC(=O)OCC(O)COP(=O)([O-])OCC[N+](C)(C)C (stereo unspecified) [18-0_LysoPC],11.2 min
19,CC(=O)C1(O)CCC2C3CC=C4CC(O)CCC4(C)C3CCC21C (stereo unspecified) [17a-Hydroxypregnenolone_H2],2.17 min
20,NCCCNCCCN [NORSPERMIDINE],19.4 min
21,"CN1C2CC(OC(=O)C(CO)c3ccccc3)CC1C1OC12 (single isomer, unassigned; (-)) [(-)-Scopolamine hydrochloride]",9.99 min
22,Cn1cnc(C[C@H](N)C(=O)O)c1 [1-METHYL-L-HISTIDINE],15.8 min

row,SMILES,LC retention time
1,Nc1ncnc2c1ncn2C1OC(COP(=O)(O)OP(=O)(O)OP(=O)(O)O)C(O)C1O (stereo unspecified) [ADENOSINE TRIPHOSPHATE],15.5 min
2,CC(O)(CC(=O)O)C(=O)O (stereo unspecified) [CITRAMALATE],6.53 min
3,CC12CCC(O)CC1CCC1C2C(O)CC2(C)C1CCC2(O)C(=O)CO (stereo unspecified),1.91 min
4,O=C(O)c1ccc2ccccc2c1[O-] [1-HYDROXY-2-NAPHTHOATE],1.77 min
5,CCCCCCCCCCCCCC(=O)OCC(O)COP(=O)([O-])OCC[N+](C)(C)C (stereo unspecified) [14-0_LysoPC],11.3 min
6,CCC(O)C(=O)[O-] (stereo unspecified) [2-HYDROXYBUTYRATE],2.1 min
7,CC(=O)c1ccc(O)cc1O [2'-4'-DIHYDROXYACETOPHENONE],1.72 min
8,CN=C(N)N [METHYLGUANIDINE],12 min
9,O=C(O)CCCCC1CCSS1 (racemic),1.66 min
10,Cn1c(=O)c2c(ncn2C)n(C)c1=O [CAFFEINE],1.87 min
11,Nc1ncnc2c1ncn2C1OC(COP(=O)(O)OP(=O)(O)OCC2OC(O)C(O)C2O)C(O)C1O (stereo unspecified) [ADENOSINE DIPHOSPHATE RIBOSE],14.6 min
12,Nc1ncnc2c1ncn2C1OC(CO)C(O)C1O (stereo unspecified) [ADENOSINE],8.64 min
13,CN1CC(=O)NC1=N [CREATININE],11.7 min
14,O=C[C@H](O)[C@H](O)CO [D-(-)-Erythrose],8.22 min
15,CCCCCCCCCCCCCCC=COCC(O)COP(=O)([O-])OCC[N+](C)(C)C (stereo unspecified) [C16_PlasmLPC],11.1 min
16,CC1OC(n2cnc3c(N)ncnc32)C(O)C1O (stereo unspecified) [5'-DEOXYADENOSINE],2.24 min
17,OCC(O)c1ccc(O)c(O)c1 (stereo unspecified) [3-4-DIHYDROXYPHENYLGLYCOL],8.79 min
18,Cn1cncc1CCN [3-METHYLHISTAMINE],17.2 min
19,NC(Cc1cc(I)c(O)c(I)c1)C(=O)O [3-5-DIIODO-L-TYROSINE],10.5 min
20,O=C(O)Cc1cnc[nH]1 [4-IMIDAZOLEACETATE],13.6 min
21,Oc1ccc2[nH]ccc2c1 [5-Hydroxyindole],2 min
22,Cc1cnc(C)cn1 [2-5-DIMETHYLPYRAZINE],2.19 min

# The remaining lines, values ahead:
row,LC retention time,SMILES
1,13.6 min,O=C([O-])C(O)C(O)C(=O)[O-] (stereo not drawn) [MESO-TARTRATE]
2,2.33 min,Cc1cc(=O)oc(C)c1C(=O)O [Isodehydracetic acid]
3,2.17 min,Cc1cn(C2CC(O)C(CO)O2)c(=O)[nH]c1=O (stereo unspecified) [THYMIDINE]
4,19.9 min,CC(=O)NCCCNCCCCNCCCN [N1-ACETYLSPERMINE]
5,2.79 min,O=C[O-] [FORMATE]
6,9.58 min,O=C(O)c1cc(=O)c2ccccc2[nH]1 [Kynurenic acid]
7,15 min,NC(=O)C1=CN(C2OC(COP(=O)(O)OP(=O)(O)OCC3OC(n4cnc5c(N)ncnc54)C(OP(=O)(O)O)C3O)C(O)C2O)C=CC1 (stereo unspecified) [NADPH]
8,1.58 min,CC(=O)C1CCC2C3CCC4=CC(=O)CCC4(C)C3CCC12C (stereo unspecified) [Progesterone]
9,2.19 min,O=C(O)CCC(=O)O [succinic acid]
10,5.68 min,CC(=O)C(=O)O [pyruvic acid]
11,13.6 min,OCC1OC(OCC2OC(O)(CO)C(O)C2O)C(O)C(O)C1O (stereo unspecified) [PALATINOSE]
12,11.6 min,CCC(C)C(N)C(=O)O (stereo unspecified) [ISOLEUCINE]
13,1.87 min,Cc1cc(O)cc2c1OC(C)(CCC(=O)O)CC2 (stereo unspecified) [delta CEHC]
14,13.4 min,NCC(O)c1ccc(O)c(O)c1 (stereo unspecified) [NORADRENALINE]
15,11.1 min,N[C@@H](Cc1ccccc1)C(=O)O [L-Phenylalanine]
16,16.1 min,NCCCC[C@H](N)C(=O)O [L-Lysine]
17,7.45 min,O=C(O)C=CC(=O)O [fumaric acid]
18,14.7 min,NC(C(=O)O)C(O)C(O)C(O)CO (stereo unspecified) [GLUCOSAMINATE]
19,1.94 min,COc1cc(C=CC(=O)O)ccc1O [FERULATE]
20,4.75 min,CSCC1OC(n2cnc3c(N)ncnc32)C(O)C1O (stereo unspecified) [METHYLTHIOADENOSINE]
21,9.35 min,CCCCCCCCCCCCCCCC(=O)OCC(COP(=O)(O)OCCN)OC(=O)CCCCCCCCCCCCCCC (stereo unspecified) [DIPALMITOYL-PHOSPHOETHANOLAMINE]
22,15.2 min,Nc1nc2c(ncn2C2CC(O)C(COP(=O)(O)OP(=O)(O)O)O2)c(=O)[nH]1 (stereo unspecified) [DGDP]
23,8.39 min,O=C(O)C(O)CO (stereo unspecified) [GLYCERATE]
24,13.3 min,NC(CCOC(=O)CCC(=O)O)C(=O)O (stereo unspecified) [O-SUCCINYL-HOMOSERINE]

row,LC retention time,SMILES
1,14.5 min,Nc1ccn(C2CC(O)C(COP(=O)(O)O)O2)c(=O)n1 (stereo unspecified) [DEOXYCYTIDINE MONOPHOSPHATE]
2,1.95 min,CC(=O)NC(Cc1ccccc1)C(=O)O (stereo unspecified) [N-ACETYLPHENYLALANINE]
3,1.8 min,CC=CC=CC(=O)O [SORBATE]
4,14.4 min,NC(CSCC(=O)O)C(=O)O (stereo unspecified) [S-CARBOXYMETHYLCYSTEINE]
5,10 min,O=CCc1c[nH]c2ccccc12 [INDOLEACETALDEHYDE]
6,2.13 min,CC(C)=CCNc1ncnc2nc[nH]c12 [N6-(DELTA2-ISOPENTENYL)-ADENINE]
7,2.17 min,O=C([O-])C=CC(=O)[O-] [MALEATE]
8,10.8 min,CCCCCCCCCCCCCC=CC(O)C(COP(=O)([O-])OCC[N+](C)(C)C)NC(=O)CCCCCCCCCCCCCCCCC (stereo unspecified) [SPHINGOMYELIN]
9,12 min,Nc1c(O)cccc1C(=O)CC(N)C(=O)O (stereo unspecified) [HYDROXYKYNURENINE]
10,2.06 min,O=C(O)Cc1c[nH]c2ccccc12 [INDOLE-3-ACETATE]
11,14.8 min,NC(=O)c1ccc[n+](C2OC(COP(=O)(O)OP(=O)(O)OCC3OC(n4cnc5c(=O)[nH]cnc54)C(O)C3O)C(O)C2O)c1 (stereo unspecified) [NICOTINAMIDE HYPOXANTHINE DINUCLEOTIDE]
12,1.88 min,O=C(O)CCCCCCCCC(=O)O [Sebacic acid]
13,10.6 min,CC1OC(OCC2OC(Oc3c(-c4ccc(O)c(O)c4)oc4cc(O)cc(O)c4c3=O)C(O)C(O)C2O)C(O)C(O)C1O (stereo unspecified) [rutin hydrate]
14,15.4 min,NC(CCCC(N)C(=O)O)C(=O)O (stereo unspecified) [LL-2-6-DIAMINOHEPTANEDIOATE]
15,1.53 min,COC1=C(OC)C(=O)C(CC=C(C)C)=C(C)C1=O [coenzyme Q1]
16,13.8 min,Cc1cc2nc3c(=O)[nH]c(=O)nc-3n(CC(O)C(O)C(O)COP(=O)(O)OP(=O)(O)OCC3OC(n4cnc5c(N)ncnc54)C(O)C3O)c2cc1C (stereo unspecified) [FAD]
17,14.2 min,NC(CCC(=O)O)C(=O)O (stereo unspecified) [GLUTAMATE]
18,2.13 min,O=C1CCNC(=O)N1 [DIHYDROURACIL]
19,1.5 min,CCCCCCCCCCCCCCCC(=O)OCC(CO)OC(=O)CCCCCCCCCCCCCCC (stereo unspecified) [DIPALMITOYLGLYCEROL]
20,11.4 min,Nc1nc2c(ncn2C2OC(CO)C(O)C2O)c(=O)[nH]1 (stereo unspecified) [GUANOSINE]
21,14.2 min,NC(=O)C[C@H](N)C(=O)O [L-Asparagine]
22,1.61 min,COC(=O)Cc1c[nH]c2ccccc12 [INDOLE-3-METHYL ACETATE]
23,14.4 min,Nc1nc2c(ncn2C2CC(O)C(COP(=O)(O)O)O2)c(=O)[nH]1 (stereo unspecified) [dGMP sodium salt hydrate]
